Test results as given in US20160067265A1, “Abiraterone Acetate Formulation” (ICEUTICA INC., priority 2013, published 2016).

What was measured:
[1] = Particle size analysis (Malvern Mastersizer 3000), Example 4; assay type: physicochemical; settings: volume statistics, in 0.1% PVP
Procedure: This cycle was continued until the total sonication time reached one minute. […] The sample was then allowed to stir for 5 minutes prior to taking measurements. Data from the final measurements are presented in Table 1 and depicted graphically in FIG. 3. For comparison, the particle size distribution of unmilled abiraterone acetate (raw drug substance) was also determined. […] The sample was then allowed to stir for 5 minutes prior to taking measurements. The data from these measurements are presented in Table 1 and depicted graphically in FIG. 3. […] No fine particle abiraterone acetate was measured in the unmilled drug sample. [table]

[2] = Particle size distribution by light scattering (Malvern Mastersizer 2000), Example 1; assay type: physicochemical; settings: volume statistics
Excerpt: Abiraterone acetate drug substance was obtained from Hangzhao Dayangchem Co., Ltd.; Hangzhao City, P.R. China.

[3] = Comparative capsule dissolution, 10 mmol phosphate buffer pH 6 with 0.1% SDS, Example 2; assay type: physicochemical; settings: pH 6 phosphate buffer, 37° C.
Procedure: Also, 250 mg of unmilled abiraterone acetate was hand filled into similar capsules. Dissolution profiles were measured in triplicate using a Varian VK7025 dissolution apparatus fitted with (6) 1000 mL vessels, with detection performed in a Varian UV-Vis Spectrophotometer at 270 nm. Each vessel contained 900 mL dissolution media consisting of 10 mmol phosphate buffer at pH 6 with 0.1% SDS added. Experiments were conducted at 37° C. The hard gelatin capsules were fitted inside spiral sinkers before commencing the dissolution experiments.

[4] = Accelerated stability, 4 hrs at 80° C., total impurities; settings: after 4 hours at 80° C.
Procedure: As part of the analysis of impurity growth, the impact on impurity level of various excipients useful for tablet preparation was examined by blending the DPI with various excipients and heating for 4 hours at 80° C.

Structure (SMILES): CC(=O)O[C@H]1CC[C@@]2(C)C(=CC[C@@H]3[C@@H]2CC[C@]2(C)C(c4cccnc4)=CC[C@@H]32)C1 [Unmilled, Abiraterone acetate]
- D4,3 [1]: 28.1 μm
- D10 [1]: 8.18 μm
- D50 [1]: 21.8 μm
- D90 [1]: 47.3 μm

Structure (SMILES): CC(=O)O[C@H]1CC[C@@]2(C)C(=CC[C@@H]3[C@@H]2CC[C@]2(C)C(c4cccnc4)=CC[C@@H]32)C1 [unmilled abiraterone acetate, Abiraterone acetate]
- D10 [2]: 16 μm
- D50 [2]: 37 μm
- D90 [2]: 70 μm
- average particle size [2]: approximately 40 μm
- % dissolved after one hour [3]: approximately 10%

Structure (SMILES): CC(=O)O[C@H]1CC[C@@]2(C)C(=CC[C@@H]3[C@@H]2CC[C@]2(C)C(c4cccnc4)=CC[C@@H]32)C1 [API prior to size reduction, Abiraterone acetate]
- degradation [4]: essentially no degradation
